According to US11992492B2, “Composition for preventing or treating cellular senescence-associated diseases, containing homoharringtonine as active ingredient” (RESEARCH COOPERATION FOUNDATION OF YEUNGNAM UNIVERSITY, priority 2018, dated 2024):

How the values were obtained:
[1] = test system: replicative senescent human fibroblasts; experiment: LDH activity analysis (cytotoxicity) in young and replicative senescent human fibroblasts; type: cell-based; details: young vs replicative senescent fibroblasts; FIG. 2C
Method: Cytotoxicity against young and senescent cells was investigated with a lactate dehydrogenase (LDH) activity kit (Dojindo Molecular Technologies Inc.). Young cells (1×10^3 cells/100 μl/well) or senescent cells (2×10^3 cells/100 μl/well) were dispensed into a 96-well plate, and then cultured overnight in a 37° C., 5% CO2 incubator. Homoharringtonine, ABT263 and rapamycin were treated at each concentration, and then incubated for 4 days in a 37° C., 5% CO2 incubator. After transferring the cell culture solution to a 1.5 ml tube, it was centrifuged at 4° C. and 12,000 rpm. 100 μl of the supernatant was dispensed into a 96-well plate, and 100 μl of the LDH measurement solution was added to each well, followed by reaction in a CO2 incubator for 30 minutes. 50 μl of the LDH reaction stop solution was added, and absorbance was measured at 490 nm using a microplate reader. The level of LDH activity was expressed as a relative value based on the absorbance of the control group treated with only DMSO.

[2] = test system: human retinal pigmented epithelial cells; experiment: CCK-8 analysis and LDH activity analysis in retinal pigmented epithelial cells; type: cell-based; details: ARPE young and doxorubicin-senescent; FIG. 6D, 6E
Method: Young cells (1×10^3 cells/well) or senescent cells (2×10^3 cells/well) were dispensed into a 96-well plate, and cultured overnight in a 37° C., 5% CO2 incubator.
Homoharringtonine, ABT263 and rapamycin were treated at each concentration, and then incubated for 4 days in a 37° C., 5% CO2 incubator. 10 μl of CCK-8 reagent (Dojindo Molecular Technologies Inc., Kumamoto, Japan) was added to each well, and incubated for 2 hours in an incubator. Then, the absorbance was measured at 450 nm using a Microplate reader. The degree of cell survival was expressed as a relative value for the absorbance of the control group treated with only DMSO as 100%.
Cytotoxicity against young and senescent cells was investigated with a lactate dehydrogenase (LDH) activity kit (Dojindo Molecular Technologies Inc.). Young cells (1×10^3 cells/100 μl/well) or senescent cells (2×10^3 cells/100 μl/well) were dispensed into a 96-well plate, and then cultured overnight in a 37° C., 5% CO2 incubator.
Homoharringtonine, ABT263 and rapamycin were treated at each concentration, and then incubated for 4 days in a 37° C., 5% CO2 incubator. […] 50 μl of the LDH reaction stop solution was added, and absorbance was measured at 490 nm using a microplate reader. The level of LDH activity was expressed as a relative value based on the absorbance of the control group treated with only DMSO.

COC(=O)C[C@](O)(CCCC(C)(C)O)C(=O)O[C@@H]1C(OC)=C[C@]23CCCN2CCc2cc4c(cc2[C@H]13)OCO4 [homoharringtonine, Homoharringtonine]
LDH activity (cytotoxicity) [1]: increased only in replicative senescent cells compared to young cells
senescent cell-specific cytotoxicity (CCK-8 analysis and LDH activity analysis) [2]: not induced
